Sander's compilation of Henry's law constants (doi:10.1016/j.hazl.2022.100070)

assay: Henry solubility constant Hcp at 298.15 K (mol/(m3 Pa)); details: reference: Abusallout et al. (2022)

| SMILES | Henry solubility constant Hcp |
| --- | --- |
| FC(F)(F)C(F)(F)C(F)(F)C(F)(F)C(F)(F)C(F)(F)CCI [1,1,1,2,2,3,3,4,4,5,5,6,6-tridecafluoro-8-iodooctane] | 0.0013 |
| CCNS(=O)(=O)C(F)(F)C(F)(F)C(F)(F)C(F)(F)C(F)(F)C(F)(F)C(F)(F)C(F)(F)F [N-ethylperfluorooctanesulfonamide] | 0.00094 |
| CNS(=O)(=O)C(F)(F)C(F)(F)C(F)(F)C(F)(F)C(F)(F)C(F)(F)C(F)(F)C(F)(F)F [N-methylperfluorooctanesulphonamide] | 0.00044 |
| C=CC(=O)OCCC(F)(F)C(F)(F)C(F)(F)C(F)(F)C(F)(F)C(F)(F)C(F)(F)C(F)(F)F | 0.0013 |
| OCCC(F)(F)C(F)(F)C(F)(F)C(F)(F)C(F)(F)C(F)(F)C(F)(F)C(F)(F)C(F)(F)C(F)(F)F [1,1,2,2-tetrahydroperfluoro dodecanol] | 0.00014 |
| C=CC(F)(F)C(F)(F)C(F)(F)C(F)(F)C(F)(F)C(F)(F)F [(perfluorohexyl)ethene] | 0.00011 |
| FC(F)(F)C(F)(F)C(F)(F)C(F)(F)C(F)(F)C(F)(F)I [perfluorohexyl iodide] | 0.00046 |

Second part, the molecule after the results:

| Henry solubility constant Hcp | SMILES |
| --- | --- |
| 0.0013 | OCCC(F)(F)C(F)(F)C(F)(F)C(F)(F)F [1H,1H,2H,2H-perfluorohexan-1-ol] |
| 0.00084 | FC(F)(F)C(F)(F)C(F)(F)C(F)(F)C(F)(F)C(F)(F)/C=C/I [1H,2H-perfluoro-1-iodooct-1-ene] |
| 0.0002 | OCCC(F)(F)C(F)(F)C(F)(F)C(F)(F)C(F)(F)C(F)(F)C(F)(F)C(F)(F)F [1H,1H,2H,2H-perfluorodecan-1-ol] |
| 0.0022 | O=S(=O)(O)CCC(F)(F)C(F)(F)C(F)(F)C(F)(F)C(F)(F)C(F)(F)C(F)(F)C(F)(F)F [1H,1H,2H,2H-perfluorodecane sulfonic acid] |
| 0.0045 | O=S(=O)(O)CCC(F)(F)C(F)(F)C(F)(F)C(F)(F)F [1H,1H,2H,2H-perfluorohexane sulfonic acid] |
| 0.00058 | O=C(O)CC(F)(F)C(F)(F)C(F)(F)C(F)(F)C(F)(F)C(F)(F)C(F)(F)C(F)(F)F [2H,2H-perfluorodecanoic acid] |
| 0.0021 | O=S(=O)(O)CCC(F)(F)C(F)(F)C(F)(F)C(F)(F)C(F)(F)C(F)(F)F [1H,1H,2H,2H-perfluorooctane sulfonic acid] |
| 0.00033 | OCCC(F)(F)C(F)(F)C(F)(F)C(F)(F)C(F)(F)C(F)(F)F [1H,1H,2H,2H-perfluoro-1-octanol] |
